Earlier results as cited in patent publication US20130048853A1, “Adsorbent and Method for Producing Same” (HITACHI HIGH-TECHNOLOGIES CORPORATION, priority 2010, published 2013).
Several values for one entry are separate records, joined by “and”; a condition that tells them apart may be missing. Equal values may be shown once. Read-outs that look alike come from different tables or passages of the source.

[1] = source not stated, calculated or actual values may be applied

SMILES | logP (octanol-water distribution coefficient) [1] | logP (octanol-water distribution coefficient)
CO[C@H]1C[C@@H]2CC[C@@H](C)[C@@](O)(O2)C(=O)C(=O)N2CCCC[C@H]2C(=O)O[C@H]([C@H](C)C[C@@H]2CC[C@@H](OCCO)[C@H](OC)C2)CC(=O)[C@H](C)/C=C(\C)[C@@H](O)[C@@H](OC)C(=O)[C@H](C)C[C@H](C)/C=C/C=C/C=C/1C [everolimus] | 3.4 and 3.35 | 
O=C1NC(=O)C(c2ccccc2)(c2ccccc2)N1 [phenyloin] |  | 2.5
CO[C@H]1C[C@@H]2CC[C@@H](C)[C@@](O)(O2)C(=O)C(=O)N2CCCC[C@H]2C(=O)O[C@H]([C@H](C)C[C@@H]2CC[C@@H](O)[C@H](OC)C2)CC(=O)[C@H](C)/C=C(\C)[C@@H](O)[C@@H](OC)C(=O)[C@H](C)C[C@H](C)/C=C/C=C/C=C/1C [rapamycin] | 3.5 | 
